“Also recorded” adds a separate entry of the source.
Test system: Tn5 transposase enzyme bound to tagmented DNA (tagmented DNA complex), Mg^2+ cofactor
Assay: Removal of Tn5 transposase from tagmented DNA complex after tagmentation with Mg2+ cofactor (library yield and insert size profile after PCR)
Excerpt: As such Mg^2+ was the divalent cation cofactor.
In the workflow for experiment A: DNA was first tagmented, appending the transferred strand of the adaptor to the 5′ ends of the tagmented DNA, and then treated with water (not sodium dodecyl sulfate (SDS)), thus keeping the Tn5 bound to the tagmented DNA. The tagmented DNA complex was washed and subjected to PCR (including high temperature heating which may dissociate the Tn5) to append adaptor sequences to the 3′ ends of the tagmented DNA.
In the workflow for experiment, B: DNA was first tagmented, appending the transferred strand of the adaptor to the 5′ ends of the tagmented DNA, and then was treated with SDS to denature the Tn5 enzyme, thus dissociating it from the tagmented DNA complex. The SDS was washed away and the tagmented DNA fragments were exposed to PCR to append adaptor sequences to the 3′ ends of the tagmented DNA.
Some of the supernatant was analyzed using a TapeStation. The size profile and yield of the tagmented DNA fragments from experiments A and B were measured using the TapeStation.
As such, Mg^2+ was the divalent cation cofactor.
In the workflow for experiment A: DNA was first tagmented, appending the transferred strand of the adaptor to the 5′ ends of the tagmented DNA. Tn5 was removed by adding 1% SDS and incubating for 5 minutes at 25° C.
In the workflow for experiment B: DNA was first tagmented, appending the transferred strand of the adaptor to the 5′ ends of the tagmented DNA. […] In experiment B, the transposase removal fluid included 100 mM Tris-HCl, pH 8.6, 100 mM NaCl, and 0.6 mM EDTA.
In the workflow for experiments A and B: DNA was first tagmented, appending the transferred strand of the adaptor to the 5′ ends of the tagmented DNA. Tn5 was removed by adding 1% SDS and incubating for 5 minutes at 25° C.
In the workflow for experiments C and D: DNA was first tagmented, appending the transferred strand of the adaptor to the 5′ ends of the tagmented DNA.
For each of these experiments, the tagmentation buffer included water, 4% DMF, 2 mM magnesium acetate, and 4 mM tris acetate salt, pH 7.6. As such Mg^2+ was the divalent cation cofactor.
In the workflow for experiment B: DNA was first tagmented, appending the transferred strand of the adaptor to the 5′ ends of the tagmented DNA. […] In experiment B, the transposase removal fluid included 140 mM Tris, pH 8.8, 100 mM KCl, and 1.8 mM EDTA. […] The sample was processed under Extension-Ligation and PCR-cycling conditions with a ligase, non-strand displacing polymerase and Q5 polymerase in a buffer base with 2.4 mM Magnesium.
In the workflow for experiment A: DNA was first tagmented using the Mg^2+ tagmentation buffer described in this example, appending the transferred strand of the adaptor to the 5′ ends of the tagmented DNA. Tn5 was removed by adding 1% SDS and incubating for 5 minutes at 25° C.
In the workflow for experiment D: DNA was first tagmented using the Mg^2+ tagmentation buffer described in this example, appending the transferred strand of the adaptor to the 5′ ends of the tagmented DNA.
In the workflow for experiment A: DNA was first tagmented, appending the transferred strand of the adaptor to the 5′ ends of the tagmented DNA. […] In experiment A, the transposase removal fluid included 500 mM Tris, pH 8.6, 100 mM NaCl, and 15 mM 2-hydroxy-4-oxo-4-thiophen-2-yl-but-2-enoic acid integrase inhibitor. […]

Structure (SMILES)	Dissociation of Tn5 enzyme from tagmented DNA complex (yield and insert size profile, FIG. 5) (Example 2, supernatant discarded, 100 mM Tris-HCl pH 8.6, 100 mM NaCl, 0.6 mM EDTA, 1 minute at 60° C., compared with 1% SDS)	Dissociation of Tn5 from tagmented DNA complex (size profile and yield, FIG. 6) (Example 3, applied directly without removing supernatant, 100 mM Tris-HCl pH 8.6, 100 mM NaCl, 6 mM EDTA, 1 minute at 60° C.)	Dissociation of Tn5 from tagmented DNA complex (size profile and yield, FIG. 7) (Example 4, 140 mM Tris pH 8.8, 100 mM KCl, 1.8 mM EDTA, 1 minute at 60° C., extension-ligation and PCR added directly with 2.4 mM magnesium)	Tn5 removal from the tagmented product complex (yield and insert size profile, FIG. 4) (Example 1, SDS treatment versus water and high temperature heating of PCR, Mg2+ cofactor, sulfate)
O=C(O)CN(CCN(CC(=O)O)CC(=O)O)CC(=O)O [EDTA, ethylenediaminetetraacetic acid]	sufficient to replace SDS as a reagent for dissociating the Tn5 enzyme from a tagmented DNA complex	can effectively dissociate Tn5 from the tagmented DNA complex	can dissociate Tn5 from the tagmented DNA complex	–
CCCCCCCCCCCCOS(=O)(=O)[O-].[Na+] [SDS, sodium dodecyl sulfate]	–	–	–	more effective than heating alone; also recorded: more effective in removing Tn5 from the tagmented product complex than the high temperature heating used in PCR

From patent US20250197846A1, “TAGMENTATION WORKFLOW” (ILLUMINA, INC., priority 2022, published 2025)
